Bridge positions count the residues as written; N and C are the ends. Square brackets hold non-standard residues; d marks the D form. Peptide text beside a SMILES is read from it. * marks the point of attachment. Bip = N[C@@H](Cc1ccc(-c2ccccc2)cc1)C(=O)O; Phe(3-Me) = Cc1cccc(C[C@H](N)C(=O)O)c1; Cha = N[C@@H](CC1CCCCC1)C(=O)O; Cit = NC(=O)NCCC[C@H](N)C(=O)O; Carboxymethyl = O=C(O)C*; Nle = CCCC[C@H](N)C(=O)O; Orn = NCCC[C@H](N)C(=O)O; Aun = NCCCCCCCCCCC(=O)O; Dab = NCC[C@H](N)C(=O)O; Dap = NC[C@H](N)C(=O)O
Target: T1, PD-1/PD-L1 interaction (PE-labeled human PD-L1-Ig binding to Jurkat cell line over-expressing human PD-1) (Homo sapiens, UniProt Q15116)
T1 construct: expressed in transfected cells; host or cells: Jurkat
T1 sequence (Q15116 25-288): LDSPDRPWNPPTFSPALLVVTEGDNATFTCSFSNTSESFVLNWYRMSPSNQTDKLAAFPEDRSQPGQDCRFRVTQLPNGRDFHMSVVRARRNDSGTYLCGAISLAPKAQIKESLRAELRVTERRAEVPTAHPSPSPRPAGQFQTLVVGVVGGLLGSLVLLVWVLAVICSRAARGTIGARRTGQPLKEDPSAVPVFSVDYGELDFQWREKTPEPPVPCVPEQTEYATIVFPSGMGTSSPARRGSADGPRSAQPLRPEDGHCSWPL
Experiment: Jurkat-PD-1 Cell Binding High-Content Screening Assay (CBA)
Type: cell-based
Conditions: Jurkat cell line over-expressing human PD-1; PE-labeled PD-L1-Ig 20 nM final; read-out: Jurkat hPD1-PDL1 IC50
Summary of the method: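 Binding of fluorescent PD-L1-Ig (phycoerythrin on Ig tag, 20 nM final, 1 h) measured by high-content imaging of fixed, Hoechst-counterstained Jurkat-hPD-1 cells. Compound added 2 h at 37° C beforehand, in DMEM with 10% fetal calf serum.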

Q: How did the IC50 turn out when `CCCC[C@@H]1NC(=O)[C@H](C(C)C)NC(=O)[C@H](CC2CCCCC2)NC(=O)[C@H](CCN)NC(=O)[C@@H](CC(C)C)NC(=O)[C@H](CCCN)NC(=O)[C@H](Cc2ccc(O)cc2)NC(=O)[C@H](Cc2ccc(-c3ccccc3)cc2)NC(=O)[C@H](C(C)C)NC(=O)[C@H](Cc2cccc(C)c2)NC(=O)[C@H](CC(=O)O)NC(=O)[C@H](Cc2ccc(OCC(=O)O)cc2)NC(=O)[C@H](CN)NC(=O)CSC[C@@H](C(=O)N[C@@H](CCN)C(=O)NCCCCCCCCCCC(=O)O)NC1=O` [Compound 2720] ({CH2CO}-[Dap]Y(Carboxymethyl)D[Phe(3-Me)]V[Bip]Y[Orn][dL][Dab][Cha]V[Nle]C[Dab][Aun]-OH; thioether N-14) was run?
A: 135 nM

Q: `Cc1cccc(C[C@@H]2NC(=O)[C@H](CC(=O)O)NC(=O)[C@H](Cc3ccc(OCC(=O)O)cc3)NC(=O)[C@H](CN)NC(=O)CSC[C@@H](C(=O)N[C@@H](CCN)C(=O)NCCCCCCCCCCC(=O)O)NC(=O)[C@@H](CCC(N)=O)NC(=O)[C@H](C(C)C)NC(=O)[C@H](CC3CCCCC3)NC(=O)[C@H](CCN)NC(=O)[C@@H](CC(C)C)NC(=O)[C@H](CCCN)NC(=O)[C@H](Cc3ccc(O)cc3)NC(=O)[C@H](Cc3ccc(-c4ccccc4)cc3)NC(=O)[C@H](C(C)C)NC2=O)c1` [Compound 2721] ({CH2CO}-[Dap]Y(Carboxymethyl)D[Phe(3-Me)]V[Bip]Y[Orn][dL][Dab][Cha]V[dQ]C[Dab][Aun]-OH; thioether N-14) was tested. Which IC50 did it give?
A: 22.4 nM

Q: `Cc1cccc(C[C@@H]2NC(=O)[C@H](CC(=O)O)NC(=O)[C@H](Cc3ccc(OCC(=O)O)cc3)NC(=O)[C@H](CN)NC(=O)CSC[C@@H](C(=O)N[C@@H](CCN)C(=O)NCCCCCCCCCCC(=O)O)NC(=O)[C@@H]([C@H](C)O)NC(=O)[C@H](C(C)C)NC(=O)[C@H](CC3CCCCC3)NC(=O)[C@H](CCN)NC(=O)[C@@H](CC(C)C)NC(=O)[C@H](CCCN)NC(=O)[C@H](Cc3ccc(O)cc3)NC(=O)[C@H](Cc3ccc(-c4ccccc4)cc3)NC(=O)[C@H](C(C)C)NC2=O)c1` [Compound 2722] ({CH2CO}-[Dap]Y(Carboxymethyl)D[Phe(3-Me)]V[Bip]Y[Orn][dL][Dab][Cha]V[dT]C[Dab][Aun]-OH; thioether N-14) was tested. Which IC50 did it give?
A: 34.3 nM

Q: For `Cc1cccc(C[C@@H]2NC(=O)[C@H](CC(=O)O)NC(=O)[C@H](Cc3ccc(OCC(=O)O)cc3)NC(=O)[C@H](CCCNC(=N)N)NC(=O)CSC[C@@H](C(=O)N[C@@H](CCN)C(=O)NCCCCCCCCCCC(=O)O)NC(=O)[C@H](CCCNC(N)=O)NC(=O)[C@H](C(C)C)NC(=O)[C@H](CC3CCCCC3)NC(=O)[C@H](CCN)NC(=O)[C@@H](CC(C)C)NC(=O)[C@H](CCCN)NC(=O)[C@H](Cc3ccc(O)cc3)NC(=O)[C@H](Cc3ccc(-c4ccccc4)cc3)NC(=O)[C@H](C(C)C)NC2=O)c1` [Compound 2723] ({CH2CO}-RY(Carboxymethyl)D[Phe(3-Me)]V[Bip]Y[Orn][dL][Dab][Cha]V[Cit]C[Dab][Aun]-OH; thioether N-14), which IC50 is on record?
A: 26.9 nM

Q: How did the IC50 turn out when `Cc1cccc(C[C@@H]2NC(=O)[C@H](CC(=O)O)NC(=O)[C@H](Cc3ccc(OCC(=O)O)cc3)NC(=O)[C@H](CCCNC(=N)N)NC(=O)CSC[C@@H](C(=O)N[C@@H](CCN)C(=O)NCCCCCCCCCCC(=O)O)NC(=O)[C@H](CCCNC(N)=O)NC(=O)[C@H](C(C)C)NC(=O)[C@H](CC3CCCCC3)NC(=O)[C@H](CCN)NC(=O)[C@@H](CC(C)C)NC(=O)[C@H](CCCN)NC(=O)[C@H](Cc3ccc(O)cc3)NC(=O)[C@H](Cc3ccc(-c4ccccc4)cc3)NC(=O)[C@H](Cc3ccc(O)cc3)NC2=O)c1` [Compound 2724] ({CH2CO}-RY(Carboxymethyl)D[Phe(3-Me)]Y[Bip]Y[Orn][dL][Dab][Cha]V[Cit]C[Dab][Aun]-OH; thioether N-14) was run?
A: 7.7 nM

Q: How did the IC50 turn out when `Cc1cccc(C[C@@H]2NC(=O)[C@H](CC(=O)O)NC(=O)[C@H](Cc3ccc(OCC(=O)O)cc3)NC(=O)[C@H](CCCNC(=N)N)NC(=O)CSC[C@@H](C(=O)N[C@@H](CCN)C(=O)NCCCCCCCCCCC(=O)O)NC(=O)[C@H]([C@@H](C)O)NC(=O)[C@H](C(C)C)NC(=O)[C@H](CC3CCCCC3)NC(=O)[C@H](CCN)NC(=O)[C@@H](CC(C)C)NC(=O)[C@H](CCCN)NC(=O)[C@H](Cc3ccc(O)cc3)NC(=O)[C@H](Cc3ccc(-c4ccccc4)cc3)NC(=O)[C@H](C(C)C)NC2=O)c1` [Compound 2725] ({CH2CO}-RY(Carboxymethyl)D[Phe(3-Me)]V[Bip]Y[Orn][dL][Dab][Cha]VTC[Dab][Aun]-OH; thioether N-14) was run?
A: 29.9 nM

Q: With `Cc1cccc(C[C@@H]2NC(=O)[C@H](CC(=O)O)NC(=O)[C@H](Cc3ccc(OCC(=O)O)cc3)NC(=O)[C@H](CCCNC(=N)N)NC(=O)CSC[C@@H](C(=O)N[C@@H](CCN)C(=O)NCCCCCCCCCCC(=O)O)NC(=O)[C@H]([C@@H](C)O)NC(=O)[C@H](C(C)C)NC(=O)[C@H](CC3CCCCC3)NC(=O)[C@H](CCN)NC(=O)[C@@H](CC(C)C)NC(=O)[C@H](CCCN)NC(=O)[C@H](Cc3ccc(O)cc3)NC(=O)[C@H](Cc3ccc(-c4ccccc4)cc3)NC(=O)[C@H](Cc3ccc(O)cc3)NC2=O)c1` [Compound 2726] ({CH2CO}-RY(Carboxymethyl)D[Phe(3-Me)]Y[Bip]Y[Orn][dL][Dab][Cha]VTC[Dab][Aun]-OH; thioether N-14) as the molecule, how does the IC50 read?
A: 24.1 nM

Q: With `CC(C)C[C@H]1NC(=O)[C@H](CCCN)NC(=O)[C@H](Cc2ccc(O)cc2)NC(=O)[C@H](Cc2ccc(-c3ccccc3)cc2)NC(=O)[C@H](C(C)C)NC(=O)[C@H](Cc2c[nH]c3ccccc23)NC(=O)[C@H](CC(=O)O)NC(=O)[C@H](Cc2ccc(OCC(=O)O)cc2)NC(=O)[C@H]([C@@H](C)O)NC(=O)CSC[C@@H](C(=O)N[C@@H](CCN)C(=O)NCCCCCCCCCCC(=O)O)NC(=O)[C@H]([C@@H](C)O)NC(=O)[C@H](C(C)C)NC(=O)[C@H](CC2CCCCC2)NC(=O)[C@H](CCN)NC1=O` [Compound 2727] ({CH2CO}-TY(Carboxymethyl)DWV[Bip]Y[Orn][dL][Dab][Cha]VTC[Dab][Aun]-OH; thioether N-14) as the molecule, how does the IC50 read?
A: 30.1 nM

Q: `CC(C)C[C@H]1NC(=O)[C@H](CCCN)NC(=O)[C@H](Cc2ccc(O)cc2)NC(=O)[C@H](Cc2ccc(-c3ccccc3)cc2)NC(=O)[C@H](Cc2ccc(O)cc2)NC(=O)[C@H](Cc2c[nH]c3ccccc23)NC(=O)[C@H](CC(=O)O)NC(=O)[C@H](Cc2ccc(OCC(=O)O)cc2)NC(=O)[C@H]([C@@H](C)O)NC(=O)CSC[C@@H](C(=O)N[C@@H](CCN)C(=O)NCCCCCCCCCCC(=O)O)NC(=O)[C@H]([C@@H](C)O)NC(=O)[C@H](C(C)C)NC(=O)[C@H](CC2CCCCC2)NC(=O)[C@H](CCN)NC1=O` [Compound 2728] ({CH2CO}-TY(Carboxymethyl)DWY[Bip]Y[Orn][dL][Dab][Cha]VTC[Dab][Aun]-OH; thioether N-14) was tested. Which IC50 did it give?
A: 17.4 nM

Q: Which IC50 does the source give for `CC(C)C[C@H]1NC(=O)[C@H](CCCN)NC(=O)[C@H](Cc2ccc(O)cc2)NC(=O)[C@H](Cc2ccc(-c3ccccc3)cc2)NC(=O)[C@H](C(C)C)NC(=O)[C@H](Cc2c[nH]c3ccccc23)NC(=O)[C@H](CC(=O)O)NC(=O)[C@H](Cc2ccc(OCC(=O)O)cc2)NC(=O)[C@H]([C@@H](C)O)NC(=O)CSC[C@@H](C(=O)N[C@@H](CCN)C(=O)NCCCCCCCCCCC(=O)O)NC(=O)[C@H](CCCNC(N)=O)NC(=O)[C@H](C(C)C)NC(=O)[C@H](CC2CCCCC2)NC(=O)[C@H](CCN)NC1=O` [Compound 2729] ({CH2CO}-TY(Carboxymethyl)DWV[Bip]Y[Orn][dL][Dab][Cha]V[Cit]C[Dab][Aun]-OH; thioether N-14) here?
A: 12.9 nM

Q: `CC(C)C[C@H]1NC(=O)[C@H](CCCN)NC(=O)[C@H](Cc2ccc(O)cc2)NC(=O)[C@H](Cc2ccc(-c3ccccc3)cc2)NC(=O)[C@H](Cc2ccc(O)cc2)NC(=O)[C@H](Cc2c[nH]c3ccccc23)NC(=O)[C@H](CC(=O)O)NC(=O)[C@H](Cc2ccc(OCC(=O)O)cc2)NC(=O)[C@H]([C@@H](C)O)NC(=O)CSC[C@@H](C(=O)N[C@@H](CCN)C(=O)NCCCCCCCCCCC(=O)O)NC(=O)[C@H](CCCNC(N)=O)NC(=O)[C@H](C(C)C)NC(=O)[C@H](CC2CCCCC2)NC(=O)[C@H](CCN)NC1=O` [Compound 2730] ({CH2CO}-TY(Carboxymethyl)DWY[Bip]Y[Orn][dL][Dab][Cha]V[Cit]C[Dab][Aun]-OH; thioether N-14) was tested. Which IC50 did it give?
A: 15.5 nM

Q: With `Cc1cccc(C[C@@H]2NC(=O)[C@H](CC(=O)O)NC(=O)[C@H](Cc3ccc(OCC(=O)O)cc3)NC(=O)[C@H](CN)NC(=O)CSC[C@@H](C(=O)N[C@@H](CCN)C(=O)NCCCCCCCCCCC(=O)O)NC(=O)[C@H]([C@@H](C)O)NC(=O)[C@H](C(C)C)NC(=O)[C@H](CC3CCCCC3)NC(=O)[C@H](CCN)NC(=O)[C@@H](CC(C)C)NC(=O)[C@H](CCCN)NC(=O)[C@H](Cc3ccc(OCC(=O)O)cc3)NC(=O)[C@H](Cc3ccc(-c4ccccc4)cc3)NC(=O)[C@H](C(C)C)NC2=O)c1` [Compound 2731] ({CH2CO}-[Dap]Y(Carboxymethyl)D[Phe(3-Me)]V[Bip]Y(Carboxymethyl)[Orn][dL][Dab][Cha]VTC[Dab][Aun]-OH; thioether N-14) as the molecule, how does the IC50 read?
A: 18.6 nM

Q: With `Cc1cccc(C[C@@H]2NC(=O)[C@H](CC(=O)O)NC(=O)[C@H](Cc3ccc(OCC(=O)O)cc3)NC(=O)[C@H](CN)NC(=O)CSC[C@@H](C(=O)N[C@@H](CCN)C(=O)NCCCCCCCCCCC(=O)O)NC(=O)[C@H]([C@@H](C)O)NC(=O)[C@H](C(C)C)NC(=O)[C@H](CC3CCCCC3)NC(=O)[C@H](CCN)NC(=O)[C@@H](CC(C)C)NC(=O)[C@H](CCCN)NC(=O)[C@H](Cc3ccc(OCC(=O)O)cc3)NC(=O)[C@H](Cc3ccc(-c4ccccc4)cc3)NC(=O)[C@H](Cc3ccc(OCC(=O)O)cc3)NC2=O)c1` [Compound 2732] ({CH2CO}-[Dap]Y(Carboxymethyl)D[Phe(3-Me)]Y(Carboxymethyl)[Bip]Y(Carboxymethyl)[Orn][dL][Dab][Cha]VTC[Dab][Aun]-OH; thioether N-14) as the molecule, how does the IC50 read?
A: 21.2 nM

Reference: patent US20260022142A1, “MACROCYCLIC IMMUNOMODULATORS” (Bristol-Myers Squibb Company, priority 2022, published 2026)
